One data set relates to PLpro of MERS-CoV. To be noted: ref Cho et al., 2013; cited from earlier work.
The test system of another data set is PLpro of SARS-CoV. The following applies: ref Cho et al., 2013; cited from earlier work.
Another data set has as its target SARS CoV-2 PLpro (Severe acute respiratory syndrome coronavirus 2, UniProt P0DTD1). Description: biochemical. The format is biochemical. To be noted: for IC50: IC50, PLpro 0.3 µM, LKGGAMC substrate 40 µM, Tris-HCl pH 7.3, triplicate.
The subject of another data set is SARS-CoV. The following applies: Vero E6 cells; ref Lin et al., 2018; cited from earlier work.
A further data set has as its system Vero E6 cells. The following applies: cited from earlier work.

Results on 6 compounds are retold here after article PMC8899470 (Frontiers in Pharmacology, 2022).

Values joined by “and” are separate entries in the source; they are usually repeats but may differ in a detail not shown here. Equal entries are not always repeated. A value given as a limit tells only on which side of the number the result lay.

As to `CCN(CC)C(=S)SSC(=S)N(CC)CC` [Disulfiram], the “Inhibitory effect on PLpro (mode)” value in the data set on PLpro of MERS-CoV and with PLpro of SARS-CoV was “competitive inhibitory effect” in each case.

Regarding `Cc1ccc(NC2CCN(C(F)(F)F)CC2)cc1C(=O)N[C@H](C)c1cccc2ccccc12` [hit 4], on SARS CoV-2 PLpro, the IC50 is < 1000 nM and 800 nM.

At SARS CoV-2 PLpro, `Cc1ccc(NC2COC2)cc1C(=O)N[C@H](C)c1csc2ccccc12` [hit 3] returned an IC50 of 2100 ± 500 nM.

As for `Cc1ccc(N)cc1C(=O)N[C@H](C)c1cccc2ccccc12` [GRL0617], the “Inhibition of SARS-CoV replication” value in the data set with SARS-CoV is given as “inhibit the replication process”. Also, in the data set with Vero E6 cells, the Cytotoxicity entry is listed as “no cytotoxicity”.

`Cc1ccc(NC2CCNCC2)cc1C(=O)N[C@H](C)c1cccc2[nH]c3ccccc3c12` [hit 1]: the IC50 on SARS CoV-2 PLpro was found to be 2400 ± 600 nM.

With `CCOC(=O)c1ccc(-c2cccc([C@@H](C)NC(=O)c3cc(NC4CNC4)ccc3C)c2)s1` [hit 2], the IC50 against SARS CoV-2 PLpro was < 1000 nM and 600 nM. The “Inhibitory activity relative to positive control GRL0617” value at SARS CoV-2 PLpro (ratio of IC50 values against PLpro) is given as “about 4 times”.

What is called IC50 is the point on the concentration scale where inhibition reaches its midpoint. Low values mean inhibition by little substance, high ones a need for much substance.
